Test: Inhibition of dUTPase in human HeLa S3 cells assessed as potentiation of 1 uM FdUrd-induced decrease in cell density incubated for 24 hrs by crystal violet assay

| EC50 | SMILES |
| --- | --- |
| 70 nM | CC[C@@](O)(Cn1nncc1CCCCn1ccc(=O)[nH]c1=O)c1ccc(F)c(OCC2CC2)c1 |
| 50 nM | CC[C@@H](Cn1nncc1CCCCn1ccc(=O)[nH]c1=O)c1cccc(OCC2CC2)c1 |
| 260 nM | O=c1ccn(CCCCc2cnnn2CCc2cccc(OCC3CC3)c2)c(=O)[nH]1 |
| 1100 nM | O=c1ccn(CCCc2cnnn2CC(c2ccccc2)c2ccccc2)c(=O)[nH]1 |
